Laboratory results from PMC9413440, “An Iterative Approach Guides Discovery of the FabI Inhibitor Fabimycin, a Late-Stage Antibiotic Candidate with In Vivo Efficacy against Drug-Resistant Gram-Negative Infections” (ACS Central Science, 2022).
≈ marks a conversion by molar mass, not a printed value. Like-named read-outs stand apart in the source and are kept apart here.

What was measured:
Streptococcus pneumoniae = experiment: MIC, Streptococcus pneumoniae strains; assay type: cell-based
Protocol: (§1) II. Materials and Methods for Biological Experiments
(§2) S. aureus ATCC 29213 and E. coli MG1655 were obtained from the American Type Culture Collection (ATCC). E. coli BW25113 and E. coli JW5503 were obtained from the Keio Collection. AR-bank strains were obtained from the Centers for Disease Control and Prevention and FDA Antibiotic Resistance Isolate Bank.
(§3) Antimicrobial susceptibility tests
(§4) Susceptibility testing was performed in biological triplicate, unless noted otherwise, using the micro-dilution broth method as outlined by the Clinical and Laboratory Standards Institute. Bacteria were cultured with cation-adjusted Mueller Hinton broth (Sigma Aldrich, catalogue number: 90922). […]
(§5) NH3: m/z 391.2 → 171.0. Fabimycin: m/z 405.3 → 145.3. Power analysis was not used to determine the number of replicates. Error bars represent the standard error of the mean of three biological replicates. All compounds evaluated in biological assays were ≥95% pure.

E. coli AR-0055 = experiment: MIC against infective strain of UTI model; assay type: cell-based; details: Escherichia coli, AR0055; extensively drug-resistant, carbapenem-resistant E. coli of the UTI model (AR-0055)
Protocol: as §1, §2, §3, §4, §5

human red blood cells = experiment: Human red blood cell hemolysis; assay type: cell-based; details: 200 μM; 2 hours at 37 °C
Protocol: drug is tested in duplicate. Compounds were diluted from 10mM DMSO stocks to 5 µM in mouse or human plasma (BioreclamationIVT, Baltimore, MD). The dialysis plate (Rapid Equilibrium Dialysis (RED) device; Thermo Scientific, Waltham, MA) was prepared by adding pH 7.4 phosphate buffer to one chamber of the RED device and dosing solution to the other chamber. The plate was sealed with an adhesive tape and incubated at 37 °C while shaking for 4 hours. Equal volumes of post-dialysis samples were removed from both the plasma and the buffer chambers into separate microcentrifuge tubes, and equal volumes (100µL) of fresh phosphate buffer and plasma were added to the tubes, respectively. […] Percentage binding is determined using the following equation: Binding % = (Concentration of test compound in plasma at equilibrium (Cpe) – Concentration of test compound in buffer at equilibrium (Cb)) / Cpe x 100. […]
Next, 10 µL of washed erythrocyte suspension was added to each tube and sealed. […] Absorbance was measured at 540 nm. […]
from Charles River were used. […] No additional randomization was used to allocate the experimental groups; blinding was not performed for subsequent quantitation.
(§6) The MTD of a single dosage of a given compound was determined before evaluating the MTD of multiple dosages. […]
weeks (single dose). The single-dose MTDs were determined first. […]

in vivo = experiment: in vivo
From the text: Mouse maximum tolerated dose (MTD) of fabimycin
The protocol to assess fabimycin’s murine MTD when formulated in 20% sulfobutyl ether(7) β-cyclodextrin (SBE-β-CD) in H2O was approved by the Institutional Animal Care and Use Committee (IACUC) at the University of Illinois at Urbana-Champaign (protocol number: 19181). […]
from Charles River were used. Mice were randomly chosen and divided into subsequent groups. No additional randomization was used to allocate the experimental groups; blinding was not performed for subsequent quantitation.
as §6
weeks (single dose). The single-dose MTDs were determined first. For multiple doses, the compound was given by daily […]
highest dosage with acceptable toxicity (<20% weight loss). MTD values shown for Debio-1452-NH3 are as previously reported.3 MTD values for fabimycin when formulated in 17% Cremophor EL/3% SBE-β-CD were drawn from infection models conducted with neutropenic A. baumannii-infected mice (see below). […]
River Licensee) weighing 18 ± 2 grams were used.10 All animals were specific pathogen free. Mice were rendered neutropenic via cyclophosphamide (CP) administration by two intraperitoneal (IP) injections following a standard method for mouse thigh infection models.11 The first CP dose, 150 mg/kg, was administered at four days before infection (Day –4); and the second, 100 mg/kg, at 24 h before infection (Day –1), prior to infection on Day 0.

`Cc1c(CN(C)C(=O)/C=C/c2cnc3c(c2)CC[C@H](N)C(=O)N3)oc2ccccc12` [fabimycin] gave an MIC (Streptococcus pneumoniae; S. pneumoniae 202-5872) greater than 128 µg/mL, an MIC (Streptococcus pneumoniae; S. pneumoniae 202-6154) greater than 128 µg/mL and an MIC (Streptococcus pneumoniae; S. pneumoniae 202-6515) greater than 128 µg/mL. It also gave an MIC (Streptococcus pneumoniae; S. pneumoniae 202-7382) greater than 128 µg/mL, an MIC (Streptococcus pneumoniae; S. pneumoniae CO314937) greater than 128 µg/mL and an MIC (Streptococcus pneumoniae; S. pneumoniae MD77773) greater than 128 µg/mL. It also gave an MIC (Streptococcus pneumoniae; S. pneumoniae MD77841) greater than 128 µg/mL, an MIC (Streptococcus pneumoniae; S. pneumoniae NYO5984) greater than 128 µg/mL and an MIC (Streptococcus pneumoniae; Streptococcus pneumoniae, ATCC49619, S. pneumoniae ATCC 49619, read-out: MIC) greater than 128 µg/mL. For the same compound, the MIC (Streptococcus pneumoniae; Streptococcus pneumoniae, S. pneumoniae NYO5986, read-out: MIC) was greater than 128 µg/mL, the MIC (E. coli AR-0055) was 2 µg/mL (≈ 4.94 µM) and the “lysis of human red blood cells” value (human red blood cells) was “nonhemolytic”. The MTD (in vivo; BALB/c, mouse, iv) was 100 mg/kg, the MTD at 1 day (in vivo; BALB/c, mouse, iv) was 75 mg/kg and the MTD at 3 d (in vivo; BALB/c, mouse, iv) was 75 mg/kg. It also gave an MTD at 2 weeks (in vivo; female, C57BL/6, mouse, ip) greater than 200 mg/kg, an MTD at 1 day (in vivo; female, C57BL/6, mouse, ip) greater than 200 mg/kg and an MTD at 5 d (in vivo; female, C57BL/6, mouse, ip) greater than 100 mg/kg.
